Results on four molecules are retold here after patent US12692232B2, “Indole carboxamide compound, preparation therefor and use thereof” (NANJING RUISHUNING MEDICAL TECHNOLOGY CO., LTD., priority 2021, dated 2026).

What all share (format): in vivo
Assay [1] has as its system mouse model of focal segmental glomerulosclerosis. Description: Mouse model of focal segmental glomerulosclerosis (adriamycin). As to the method:
(§1) The method was as follows:
Each mouse in the model group, the treatment groups and the positive control group was injected once into the tail vein with adriamycin at a dose of 8 mg/kg, and each mouse in the control group was injected once into the tail vein with saline at the same dose. The mice in the control group and model group were administered equal amount of saline by gavage for 6 weeks, and the mice in other group were administered corresponding compound in doses by gavage at a fixed time each day for 6 weeks after modelling with adriamycin. The body weights were recorded weekly and urine samples were collected.
Collection of urine samples: animals were placed in separate metabolic cages by group on days 0, 7, 14, 21, 28, 35, and 42 after modelling, with free access to water and no access to food, and urine samples were collected from each group of mice.
Determination of urine protein level using Coomassie brilliant blue (CBB) method: urine protein level was determined by urine protein quantitative test kit (Nanjing Jiancheng Bioengineering Institute). CBB working solution was prepared according to the kit instructions. 0.05 mL of each urine sample was mixed with 3 mL of CBB working solution, the mixture was allowed to stand for 5 min, and the absorbance value of each sample was determined at 595 nm. The urine protein levels samples of each group was calculated according to the protein standardization formula: urine protein level (mg/L)=(measured OD−blank OD)/(standard OD−blank OD)×563 mg/L.
Collection of serum samples: orbital blood from each mouse was collected in an EP tube, placed at 37° C. for 20 minutes, and centrifuged to obtain an upper layer of serum.
Collection of plasma samples: orbital blood from each mouse was collected in an anticoagulation tube, mixed well and stored at 4° C. for later use.
Determination of urea nitrogen level in plasma by diacetyl monoxime method: urea nitrogen level was determined by using blood urea nitrogen (BUN) test kit (Nanjing Jiancheng Bioengineering Institute). According to the kit instructions, 0.05 mL of anticoagulated plasma sample was mixed with 1 mL of oxime solution and 1 mL of acid working solution, and the mixtures were placed in a boiling water bath for 15 minutes. A UV-visible spectrophotometer was used to determine the absorbance values of each tube at a wavelength of 520 nm. Urea nitrogen levels in plasma samples of each group were calculated according to the formula: Urea nitrogen level (mmol/L)=(measured OD value−blank OD value)/(standard OD value−blank OD value)×10 mmol/L.
Collection of kidney tissue samples: kidneys were taken from mice after anesthesia, cut horizontally, and the upper part of the kidneys was embedded in OCT embedding box, sliced with frozen slicer and stored at −20° C.
H&E staining was used to assess pathological glomerular changes, and the procedure was as follows: frozen sections were fixed with 95% ethanol for 2 minutes, hydrated with distilled water, stained with hematoxylin for 3 minutes, washed with distilled water for 3 minutes, differentiated using 1% hydrochloric acid in ethanol for 10 seconds, washed with distilled water for 30 seconds, returned to blue in running water for 5 minutes, washed in distilled water for 30 seconds, stained with eosin for 30 seconds, washed with 75% and 85% ethanol for 20 seconds each, dehydrated rapidly with 95% ethanol for 1 minute, dehydrated with anhydrous ethanol, cleared to transparency in xylene (1 minute×3), and finally sealed with neutral balsam and photographed with a biomicroscope.

Assay [2] has as its system mouse model of renal fibrosis (UUO). Description: Mouse model of renal fibrosis (unilateral ureteral obstruction, UUO). As to the method:
The therapeutic effect of the compounds of the present invention (as exemplified by Compound 1-1 obtained in Example 1) on renal fibrosis was determined using a mouse model of renal fibrosis. The method was as follows:
Grouping of animals: male C57BL/6J mice aged 8 weeks were given adaptive feeding for 3 days and grouped into a sham operation group, a sham operation-treatment group, a Unilateral ureteral obstruction (UUO) model group, a low-dose (10 mg/kg) treatment group, a medium-dose (25 mg/kg) treatment group, a high-dose (50 mg/kg) treatment group, a medium-dose (25 mg/kg) treatment group of indole analogue 3-[(1-methyl-1H-indole-2-carbonyl)amino]propionic acid disclosed in CN2019107285315, and a positive control group of losartan (50 mg/kg), with 10 animals in each group. Mice in the model and the treatment groups were anesthetized by intraperitoneal injection of 0.5% sodium pentobarbital at a dose of 0.1 mL/10 g. The mice were fixed on the operating table and cut open in layers from the right side of the mid-abdomen to locate the left kidney, and the ends of the ureter were ligated, while the ureter was cut off between the two ligations; the sham operation group was operated as described above and the ligations were not performed. Post-operative organs were repositioned, sutured, and sterilized with iodophor after suturing was completed. Immediately after operation, the drug was administered by gavage once daily for 14 days. Urine sample collection: animals were placed in separate metabolic cages by group on days 0, 5, 10 and 14 after modelling, without food or water, and urine samples were collected from each group of mice.
The protein levels in urine were determined using Coomassie brilliant blue (CBB) method by using urine protein quantitative test kit (Nanjing Jiancheng Bioengineering Institute). CBB working solution was prepared according to the kit instructions. 0.05 mL of each urine sample was mixed with 3 mL of CBB working solution, the mixture was left to stand for 5 min, and the absorbance value of each sample was determined at 595 nm. The protein levels in each group of urine samples were calculated according to the protein standardization formula: urine protein levels (mg/L)=(measured OD−blank OD)/(standard OD−blank OD)×563 mg/L.
Collection of serum sample: orbital blood from each mouse was collected in an EP tube, placed at 37° C. for 20 minutes, and centrifuged to obtain the upper layer of serum.
Collection of plasma sample: orbital blood from each mouse was collected in an anticoagulation tube, mixed well and stored at 4° C. for later use.
Determination of creatinine levels in urine and serum by the picric acid colorimetric method: creatinine levels in urine and serum were determined by using the creatinine test kit (Nanjing Jiancheng Bioengineering Institute). According to the kit instructions, 1.5 mL of urine sample or serum sample and 0.5 mL of picric acid solution, 0.5 mL of 0.5 mol/L sodium hydroxide solution were mixed, heated in water bath at 37° C. for 10 minutes. The absorbance value of each sample was determined using a UV spectrophotometer at a wavelength of 510 nm. Creatinine levels in samples of each group were calculated according to the formula: creatinine level (μmol/L) in serum or urine=(measured OD value−blank OD value)/(standard OD value−blank OD value)×50 μmol/L×(dilution ratio 201).
Determination of urea nitrogen level in plasma by diacetyl monoxime method: urea nitrogen level was determined was determined by using blood urea nitrogen (BUN) test kit (Nanjing Jiancheng Bioengineering Institute). According to the kit instructions, 0.05 mL of anticoagulated plasma samples were mixed with 1 mL of oxime solution and 1 mL of acid working solution, and the mixtures were placed in a boiling water bath for 15 min. A UV-visible spectrophotometer was used to determine the absorbance values of each tube at a wavelength of 520 nm. […]

Assay [3] concerns H22 liver subcutaneous transplanted tumor. Nature of the assay: Mouse model of H22 liver subcutaneous transplanted tumor. To be noted: 20 mg/kg injected intraperitoneally 14 days (positive drug). As to the method: as §1
Experimental procedure: H22 hepatoma cell suspension was adjusted to 1×10^7/mL after dilution and counting with normal saline, and 0.2 mL per mouse was inoculated on the back of the mice. After 24 hours, the mice were weighed and administered drug at a dose of 0.1 mL/10 g once a day, wherein the mice in the solvent control group and the treatment groups were administered 0.9% sodium chloride solution and the compound of the present invention, respectively, for 14 days, and the mice in the CTX group were injected intraperitoneally for 14 days. The mice were weighed after 14 days. The animals were executed and the tumor blocks were removed and weighed separately. The tumor inhibition rate was calculated according to the following formula: tumor inhibition rate (%)=(1−average tumor weight in a treatment group/average tumor weight in the solvent control group)×100%.

The test system of assay [4] is rat model of pulmonary hypertension induced by monocrotaline. Nature of the assay: Rat model of pulmonary hypertension induced by monocrotaline. The procedure: The preventive effect of the compounds of the present invention (as exemplified by compound 1-1 obtained in Example 1) on pulmonary hypertension was determined using a rat model of pulmonary hypertension induced by monocrotaline. The method was as follows:
Grouping of animals: 70 male SD rats with weigh of 200±20 g were randomly divided into 7 groups, i.e., a normal control group, a monocrotaline (MCT) model group, a treatment group of low-dose compound 1-1 (10 mg/kg) (MCT), a treatment group of medium-dose compound 1-1 (25 mg/kg) (MCT), a treatment group of high-dose compound 1-1 (50 mg/kg) (MCT), a treatment group of medium-dose indole analogue 3-[(1-methyl-1H-indole-2-carbonyl)amino]propionic acid (25 mg/kg) disclosed in CN2019107285315 (MCT), and a sildenafil group (150 mg/kg) (MCT), with 10 rats in each group.
Experimental procedure: MCT was prepared as a 2% solution with a mixture of ethanol and saline (2:8) and the solution was injected intraperitoneally once at a dose of 60 mg/kg body weight in all groups except the normal control group. Each rat in the normal control group was injected intraperitoneally once with a solution prepared from ethanol and saline in a volume ratio of 2:8. Compound 1-1 obtained in Example 1, the indole analogue 3-[(1-methyl-1H-indole-2-carbonyl)amino]propionic acid disclosed in CN2019107285315, or the positive drug sildenafil was administered by gavage to the mice in the treatment groups on the day of modelling, and saline was administered by gavage to the mice in the normal control group and the MCT model group. The drugs were administered by gavage once a day for 28 days until 12 hours before test.
Determination of hemodynamic indexes: a polyethylene plastic microcatheter filled with heparin solution (0.9% sodium chloride solution+10 U/mL heparin) was inserted into the right external jugular vein of a rat, and the other end of the microcatheter was connected to a miniature pressure transducer to monitor the pressure changes. […] After 30 minutes of stabilization, the POWERLAB multi-channel intelligent physiological signal acquisition and recording system was applied to acquire, record and analyze the indexes.
Determination of the index of right ventricular (RV) hypertrophy: at the end of the experiment, the heart was removed by dissection of the thorax and the atrial tissue was cut off. The right ventricle (RV), left ventricle (LV), and interventricular septum (S) were isolated along the edge of the interventricular septum, and the RV, LV, and S were weighed after absorbing water with filter paper and the ratio RV/(LV+S) was used to reflect the degree of RV hypertrophy.
Pathological examination of pulmonary vessels: tissue blocks were taken from the same site in the lower lobe of the right lung and fixed in 10% neutral formaldehyde (pH=7.4) for 2 days. Routine paraffin embedding, serial sections, H&E staining and light microscopy were performed to observe morphological changes in small pulmonary arteries.
Effect on inflammatory factors in lung tissue: Lung tissues were collected from each group of rats, homogenates of lung tissue were prepared and centrifuged and supernatants were collected. The protein level in the supernatant was determined by Coomassie brilliant blue method, and tumor necrosis factor-α (TNF-α) in rats was determined by an ELISA kit (Beijing 4A Biotech Co., Ltd.). […]

The mark [5] stands for this setting: gavage once daily 14 days, not statistically different (P>0.05).
Setting [6] is: MCT + sildenafil (150 mg/kg) gavage 28 days.

As to `CCCCC1=NC2(CCCC2)C(=O)N1Cc1ccc(-c2ccccc2-c2nnn[nH]2)cc1` [irbesartan, reference compound], the “serum urea nitrogen level reduced compared with the model group” value in assay [1] (50 mg/kg gavage, 6 weeks) was 9.0%. For the same molecule, the “serum urea nitrogen level” value in assay [1] (50 mg/kg gavage, 6 weeks, model 16.08±0.23) is 14.63 ± 0.19 mmol/L. This molecule also had a urine protein level in assay [1] (50 mg/kg gavage, 6 weeks, model 547.0±106.3) of 382 ± 80.8 mg/L. Besides, the “glomerular lesions, renal tissue pathology (H&E, PAS, Sirius red stain)” value in assay [1] (FIG. 1, control compound 25 mg/kg, irbesartan 50 mg/kg) is given as “shows the same effect”. Further, in assay [1] (gavage daily 6 weeks, compound 1-1 10, 25, 50 mg/kg, control compound 25 mg/kg, irbesartan 50 mg/kg), the “body weight compared with the FSGS group” value is on record as “increased body weights”.
As to `CCCCc1nc(Cl)c(CO)n1Cc1ccc(-c2ccccc2-c2nn[nH]n2)cc1` [losartan, reference compound], in assay [2] (50 mg/kg gavage 14 days), the “creatinine level reduced compared with the model group” value was 19.0%, the “urea nitrogen level reduced compared with the model group” value was found to be 29.7% and the “urine protein level reduced compared with the model group” value worked out at 46.6%. Also, the urea nitrogen level in assay [2] (50 mg/kg gavage 14 days, model 17.56±0.48) is 12.35 ± 0.37 mmol/L. In addition, in assay [2] (50 mg/kg gavage 14 days, model 32.48±0.87), the serum creatinine level turned out to be 26.32 ± 1.12 µmol/L. For the same molecule, the urine protein level in assay [2] (50 mg/kg gavage 14 days, model 888.5±264.8) turned out to be 475 ± 112 mg/L. In assay [2] (FIG. 2, control compound 25 mg/kg, losartan 50 mg/kg), the “extent of renal fibrosis, pathological staining (H&E, Masson, Sirius red)” value is “shows the same effect”. Moreover, in assay [2] (setting [5]), the “body weight compared with the UUO model group” value is given as “slight increase in body weight” and the “kidney weight compared with the UUO model group” value was “slight decrease in kidney weight”.
For the molecule `O=P1(N(CCCl)CCCl)NCCCO1` (stereo not drawn) [CTX, cyclophosphamide, reference compound], the tumor inhibition rate in assay [3] was 60.3%.
In the case of `CCCc1nn(C)c2c(=O)[nH]c(-c3cc(S(=O)(=O)N4CCN(C)CC4)ccc3OCC)nc12` [sildenafil, reference compound], in assay [4] (setting [6]), the “RV/(LV + S)” value came to 0.32 ± 0.02 and the “TNF-α in lung tissue” value is on record as 0.600 ± 06 g/g protein. The mPAP in assay [4] (MCT + sildenafil (150 mg/kg) gavage once a day 28 days) is recorded as 23.6 ± 3.4 mmHg.
